Reference: ChEMBL document CHEMBL1201862, “PubChem BioAssay data set” (2004)
The source made the active and inactive calls.

Key:
[1] = ADAM10 inhibitors, peptide cleavage, dose response, biochemical, QFRET (AID 743254);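 further: ADAM10 enzyme with the DM2 quenched FRET peptide as substrate; EDANS fluorescence gain as the protease cuts the substrate; inhibitor potency against ADAM10 proteolytic activity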
[2] = target: T1, Disintegrin and metalloproteinase domain-containing protein 17 (Homo sapiens, UniProt P78536); experiment: ADAM17 protease inhibitors, dose response, counter-screen for ADAM10 exosite inhibitor project, biochemical, quenched FRET substrate (AID 743253)
T1 sequence (P78536 whole entry, the tested form may be a part): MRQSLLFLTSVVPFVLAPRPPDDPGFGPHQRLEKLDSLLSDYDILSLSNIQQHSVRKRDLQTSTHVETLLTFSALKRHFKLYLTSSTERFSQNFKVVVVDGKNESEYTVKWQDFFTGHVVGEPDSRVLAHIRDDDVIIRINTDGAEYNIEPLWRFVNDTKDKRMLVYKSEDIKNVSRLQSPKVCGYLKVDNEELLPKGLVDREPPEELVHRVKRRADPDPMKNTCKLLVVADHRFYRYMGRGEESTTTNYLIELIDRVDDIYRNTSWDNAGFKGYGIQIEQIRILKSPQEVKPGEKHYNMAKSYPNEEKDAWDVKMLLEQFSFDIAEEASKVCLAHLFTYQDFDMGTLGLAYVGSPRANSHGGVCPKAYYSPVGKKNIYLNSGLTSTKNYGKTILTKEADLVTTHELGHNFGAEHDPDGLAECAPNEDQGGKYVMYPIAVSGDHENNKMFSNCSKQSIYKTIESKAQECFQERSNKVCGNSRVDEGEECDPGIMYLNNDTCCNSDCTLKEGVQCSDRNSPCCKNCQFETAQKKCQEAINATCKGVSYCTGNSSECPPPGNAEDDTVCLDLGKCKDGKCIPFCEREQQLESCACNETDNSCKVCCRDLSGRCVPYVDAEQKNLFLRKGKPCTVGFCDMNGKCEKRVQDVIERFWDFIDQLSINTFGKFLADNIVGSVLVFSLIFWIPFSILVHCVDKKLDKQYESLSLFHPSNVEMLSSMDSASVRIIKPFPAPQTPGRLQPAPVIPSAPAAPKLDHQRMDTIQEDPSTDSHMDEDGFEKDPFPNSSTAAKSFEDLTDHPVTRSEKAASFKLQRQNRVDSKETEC

[3] = cells; type: functional, cell-based
[4] = cells; type: functional, cell-based; remark: listed apart in the source
[5] = target: 26S proteasome non-ATPase regulatory subunit 14 (Homo sapiens, UniProt O00487); experiment: inhibition of proteasome subunit RPN11 – biochemical, fluorescence polarization, uHTS hits, confirmation (AID 602368); type: functional
Chain of 26S proteasome non-ATPase regulatory subunit 14 (O00487 whole entry): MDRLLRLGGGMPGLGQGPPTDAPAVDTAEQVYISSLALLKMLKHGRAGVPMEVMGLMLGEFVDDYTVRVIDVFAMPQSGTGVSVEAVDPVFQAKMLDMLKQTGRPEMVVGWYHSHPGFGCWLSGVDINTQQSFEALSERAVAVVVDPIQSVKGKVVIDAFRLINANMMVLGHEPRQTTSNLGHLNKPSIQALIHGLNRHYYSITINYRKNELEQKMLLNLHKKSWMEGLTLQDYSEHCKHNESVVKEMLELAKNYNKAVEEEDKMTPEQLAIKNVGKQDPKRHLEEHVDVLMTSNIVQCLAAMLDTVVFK

[6] = target: 72 kDa type IV collagenase (Homo sapiens, UniProt P08253); experiment: Dose Response validation of uHTS RPN11 inhibitor hits using a MMP-2 Fluorescence assay.; type: functional
Chain of 72 kDa type IV collagenase (P08253 whole entry): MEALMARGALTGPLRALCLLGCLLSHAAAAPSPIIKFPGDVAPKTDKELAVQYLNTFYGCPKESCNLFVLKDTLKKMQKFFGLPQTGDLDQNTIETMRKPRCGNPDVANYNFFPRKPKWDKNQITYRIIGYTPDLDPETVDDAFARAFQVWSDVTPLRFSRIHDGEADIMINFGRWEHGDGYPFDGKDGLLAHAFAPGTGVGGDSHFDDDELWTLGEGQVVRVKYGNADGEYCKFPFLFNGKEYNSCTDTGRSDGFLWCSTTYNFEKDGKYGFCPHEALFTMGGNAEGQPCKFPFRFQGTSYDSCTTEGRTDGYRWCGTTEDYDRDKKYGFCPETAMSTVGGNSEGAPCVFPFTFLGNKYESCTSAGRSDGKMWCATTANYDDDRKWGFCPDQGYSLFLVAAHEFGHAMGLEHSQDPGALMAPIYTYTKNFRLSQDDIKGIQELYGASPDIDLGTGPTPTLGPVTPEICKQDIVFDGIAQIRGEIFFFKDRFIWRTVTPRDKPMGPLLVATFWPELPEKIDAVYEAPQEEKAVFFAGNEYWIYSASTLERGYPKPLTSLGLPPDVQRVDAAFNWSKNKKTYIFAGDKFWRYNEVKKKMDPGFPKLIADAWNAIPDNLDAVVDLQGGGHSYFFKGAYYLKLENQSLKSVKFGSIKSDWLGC

[7] = target: Prothrombin (Bos taurus, UniProt P00735); experiment: thrombin inhibition, dose response, biochemical, fluorescence polarization, uHTS hits (AID 602369); type: functional
[8] = target: T1, Disintegrin and metalloproteinase domain-containing protein 17; experiment: exosite inhibitors of ADAM17, dose response, biochemical (AID 743260)
[9] = HeLa 2N DNA content increase, dose response, cell-based, IC50 (AID 1117349); type: functional
[10] = Concentration-dependent survival of SW480 colon cancer line, luminescence detection with CellTiter-Glo, half-maximal inhibitory concentration (AID 1117338); type: functional
[11] = RKO cell viability reduction, dose response, CellTiter-Glo luminescence (AID 1117322); type: functional
[12] = cytotoxicity toward HCT116 cells – cell-based, CellTiter-Glo luminescence, IC50, dose response (AID 1117332); type: functional; conditions: HCT-116
[13] = SNU-C1 cell viability reduction, dose response, CellTiter-Glo luminescence (AID 1117323); type: functional, cell-based
[14] = cytotoxicity toward Colo320 cells – cell-based, CellTiter-Glo luminescence, IC50, dose response (AID 1117334); type: functional; conditions: COLO 320
[15] = HeLa 4N DNA content increase, dose response, cell-based, IC50 (AID 1117351); type: functional
[16] = cytotoxicity toward HT-29 cells – cell-based, CellTiter-Glo luminescence, IC50, dose response (AID 1117330); type: functional
[17] = CellTiter-Glo luminescent dose response of DLD-1 viability loss (AID 1117352); type: functional
[18] = HCT116 cell viability decrease, GSK3B pretreatment – CellTiter-Glo, IC50, dose response (AID 1117339); type: functional; conditions: HCT-116
[19] = target: T2, Mannose-6-phosphate isomerase (Homo sapiens, UniProt P34949); experiment: inhibitors of human PMI, primary screen, biochemical, fluorescence intensity, coupled assay (AID 1209)
T2 sequence (P34949 whole entry): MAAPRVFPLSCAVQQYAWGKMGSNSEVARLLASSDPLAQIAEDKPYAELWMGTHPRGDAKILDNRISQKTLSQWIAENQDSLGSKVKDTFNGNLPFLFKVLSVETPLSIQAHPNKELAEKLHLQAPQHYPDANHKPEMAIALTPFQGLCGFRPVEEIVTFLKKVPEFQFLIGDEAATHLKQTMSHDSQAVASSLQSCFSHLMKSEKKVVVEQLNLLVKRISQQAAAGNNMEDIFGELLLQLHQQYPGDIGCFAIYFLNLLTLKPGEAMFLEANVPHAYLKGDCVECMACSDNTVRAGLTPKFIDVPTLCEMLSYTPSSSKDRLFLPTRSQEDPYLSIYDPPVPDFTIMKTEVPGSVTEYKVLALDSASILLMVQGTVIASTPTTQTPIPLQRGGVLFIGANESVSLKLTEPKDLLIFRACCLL

[20] = target: T2, Mannose-6-phosphate isomerase; experiment: human PMI inhibitors, high substrate, primary screen, biochemical, fluorescence intensity, high mannose 6-phosphate (AID 1220)

SMILES: C=CC[C@@H](CC(=O)N(CCO)Cc1ccccc1)C(=O)N[C@H](COC(=O)[C@@H](CC=C)Cc1ccc(F)cc1)Cc1c[nH]c2ccccc12
- IC50 [1]: > 69.5 µM (inactive)
- IC50 [2]: > 69.5 µM (inactive)

SMILES: COCC/N=c1\scc(-c2cc(OC)c(OC)c(OC)c2)n1/N=C/c1c(C)[nH]c2ccccc12
- EC50 [3]: > 350 µM (not active)
- EC50 [4]: > 350 µM (not active)
- IC50 [5]: 76.9 µM (active)
- IC50 [6]: > 100 µM (inactive)
- IC50 [7]: 57.9 µM (active)
- IC50 [1]: > 69.5 µM (inactive)
- IC50 [8]: > 69.5 µM (inactive)
- IC50 [2]: > 69.5 µM (inactive)

SMILES: O[C@@H](CNC[C@H](O)[C@H]1CCc2cc(F)ccc2O1)[C@@H]1CCc2cc(F)ccc2O1
- IC50 [9]: > 10 µM (inactive)
- IC50 [10]: 3.6 µM (active)
- IC50 [11]: 3.28 µM (active)
- IC50 [12]: 6.48 µM (inactive)
- IC50 [13]: 5.09 µM (inactive)
- IC50 [14]: > 20 µM (inactive)
- IC50 [15]: > 10 µM (inactive)
- IC50 [16]: 4.5 µM (active)
- IC50 [17]: 15.3 µM (inactive)
- IC50 [18]: 2.4 µM (active)

SMILES: CCc1ccc(/C=c2\s/c(=C\C(=O)C(C)(C)C)[nH]c2=O)cc1
- IC50 [1]: > 69.5 µM (inactive)
- IC50 [2]: > 69.5 µM (inactive)

SMILES: CCOc1ccc(/C=N/c2cccc3ncccc23)cc1
- IC50 [19]: > 50 µM (not active)
- IC50 [20]: > 50 µM (not active)

SMILES: Cc1ccccc1C(=O)Nc1ccc(C(=O)N2CCCC(N(C)C)c3ccccc32)cc1 (stereo unspecified) [MOZAVAPTAN]
- IC50 [9]: > 10 µM (inactive)
- IC50 [15]: > 10 µM (inactive)
